The NIST ThermoML archive (doi:10.1016/j.fluid.2014.11.020)
± gives the expanded uncertainty stated by the source.

Assay: activity coefficient (dimensionless); of the first substance listed, at infinite dilution; xn = mol fraction of the nth substance listed
Settings: Liquid, Chromatography, x1 = 0

| Compound | activity coefficient (323.15 K) | activity coefficient (333.15 K) | activity coefficient (343.15 K) |
| --- | --- | --- | --- |
| CCC(=O)CC [pentan-3-one] + CCCCCCCCn1cc[n+](COCCCOC[n+]2ccn(CCCCCCCC)c2C)c1C.N#C[N-]C#N.N#C[N-]C#N | 0.75 ± 0.05 | 0.76 ± 0.05 | 0.78 ± 0.05 |
| CCC[N+](=O)[O-] [1-nitropropane] + CCCOC[n+]1ccn(Cc2ccccc2)c1.N#C[N-]C#N | 1.04 ± 0.07 | 1.06 ± 0.07 | 1.06 ± 0.07 |
| CCCCCCCCCCC [undecane] + CCCOC[n+]1ccn(C)c1.N#C[N-]C#N | 556 ± 38 | 504 ± 35 | 432 ± 30 |
| CCCCCCC [heptane] + CCCOC[n+]1ccn(Cc2ccccc2)c1.O=S(=O)([N-]S(=O)(=O)C(F)(F)F)C(F)(F)F | 12 ± 0.82 | 10.1 ± 0.69 | 9.58 ± 0.65 |
| CCCC(C)=O [pentan-2-one] + CCCOC[n+]1ccn(C)c1.F[B-](F)(F)F | 3.32 ± 0.23 | 3.33 ± 0.23 | 3.31 ± 0.23 |
| ClCCl [dichloromethane] + Cn1cc[n+](COCCCOC[n+]2ccn(C)c2)c1.O=S(=O)([N-]S(=O)(=O)C(F)(F)F)C(F)(F)F.O=S(=O)([N-]S(=O)(=O)C(F)(F)F)C(F)(F)F | 0.55 ± 0.04 | 0.61 ± 0.04 | 0.43 ± 0.04 |
| C1CCCCC1 [cyclohexane] + CN(C)c1cc[n+](COCCCOC[n+]2ccc(N(C)C)cc2)cc1.O=S(=O)([N-]S(=O)(=O)C(F)(F)F)C(F)(F)F.O=S(=O)([N-]S(=O)(=O)C(F)(F)F)C(F)(F)F | 10.7 ± 0.73 | 9.32 ± 0.64 | 8.67 ± 0.59 |
| CCCCCCCCCCC [undecane] + CCCCCCCCn1cc[n+](COCCCOC[n+]2ccn(CCCCCCCC)c2C)c1C.N#C[N-]C#N.N#C[N-]C#N | 24.4 ± 1.7 | 23.4 ± 1.6 | 22.4 ± 1.5 |
| CCCCCCCCCCCCC [tridecane] + CCCOC[n+]1ccn(C)c1.N#C[N-]C#N | 1150 ± 79 | 1030 ± 71 | 916 ± 63 |
| CCCCCCCCCCCCC [tridecane] + CCCOC[n+]1ccn(C)c1.O=S(=O)([N-]S(=O)(=O)C(F)(F)F)C(F)(F)F | 201 ± 14 | 165 ± 11 | 147 ± 10 |
| CO [methanol] + Cn1cc[n+](COCCCOC[n+]2ccn(C)c2)c1.N#C[N-]C#N.N#C[N-]C#N | 0.38 ± 0.03 | 0.38 ± 0.03 | 0.37 ± 0.03 |
| CCC[N+](=O)[O-] [1-nitropropane] + N#C[N-]C#N.N#C[N-]C#N.c1ccc(Cn2cc[n+](COCCCOC[n+]3ccn(Cc4ccccc4)c3)c2)cc1 | 1.76 ± 0.12 | 1.73 ± 0.12 | 1.75 ± 0.12 |
| CC(C)CC(C)(C)C [2,2,4-trimethylpentane] + CCCCCCCCn1cc[n+](COCCCOC[n+]2ccn(CCCCCCCC)c2C)c1C.N#C[N-]C#N.N#C[N-]C#N | 11.4 ± 0.78 | 10.5 ± 0.72 | 9.74 ± 0.66 |
| Cc1ccccc1 [toluene] + CCCOC[n+]1ccn(Cc2ccccc2)c1.F[B-](F)(F)F | 3.12 ± 0.21 | 3.03 ± 0.21 | 3.04 ± 0.21 |
| Cc1ccccc1C [1,2-dimethylbenzene] + CCCOC[n+]1ccn(Cc2ccccc2)c1.O=S(=O)([N-]S(=O)(=O)C(F)(F)F)C(F)(F)F | 1.58 ± 0.1 | 1.23 ± 0.08 | 1.22 ± 0.08 |
| CCCCCCC [heptane] + Cn1cc[n+](COCCCOC[n+]2ccn(C)c2)c1.O=S(=O)([N-]S(=O)(=O)C(F)(F)F)C(F)(F)F.O=S(=O)([N-]S(=O)(=O)C(F)(F)F)C(F)(F)F | 53 ± 3.6 | 34 ± 2.3 |  |
| CCCCCCCCCCCC [dodecane] + CCCOC[n+]1ccn(C)c1.O=S(=O)([N-]S(=O)(=O)C(F)(F)F)C(F)(F)F | 132 ± 9.1 | 118 ± 8.1 | 105 ± 7.2 |
| C#CCCCCC [1-heptyne] + CCCCCCCCn1cc[n+](COCCCOC[n+]2ccn(CCCCCCCC)c2C)c1C.O=S(=O)([N-]S(=O)(=O)C(F)(F)F)C(F)(F)F.O=S(=O)([N-]S(=O)(=O)C(F)(F)F)C(F)(F)F | 1.4 ± 0.09 | 1.4 ± 0.09 | 1.41 ± 0.09 |
| CCCCCCCCCCCCC [tridecane] + CCCOC[n+]1ccc(N(C)C)cc1.O=S(=O)([N-]S(=O)(=O)C(F)(F)F)C(F)(F)F | 102 ± 7 | 96.4 ± 6.6 | 81.9 ± 5.6 |
| ClCCl [dichloromethane] + CN(C)c1cc[n+](COCCCOC[n+]2ccc(N(C)C)cc2)cc1.O=S(=O)([N-]S(=O)(=O)C(F)(F)F)C(F)(F)F.O=S(=O)([N-]S(=O)(=O)C(F)(F)F)C(F)(F)F | 0.52 ± 0.04 | 0.54 ± 0.04 | 0.56 ± 0.04 |
| Cc1ccccc1C [1,2-dimethylbenzene] + CCCCCCCCn1cc[n+](COCCC)c1C.N#C[N-]C#N | 1.33 ± 0.09 | 1.33 ± 0.09 | 1.33 ± 0.09 |
| CCC(=O)CC [pentan-3-one] + CCCOC[n+]1ccn(C)c1.O=S(=O)([N-]S(=O)(=O)C(F)(F)F)C(F)(F)F | 0.68 ± 0.05 | 0.69 ± 0.05 | 0.72 ± 0.05 |
